Experimental data taken from patent publication US7666875B2, “Hydantoin compounds” (Eisai R&D Management Co., Ltd., priority 2005, dated 2010).
Where two headings read alike, the source gives them in different places.

Molecular target: T1, human T-bet (Homo sapiens, UniProt Q9UL17)
T1 construct: expressed in transfected cells; host or cells: engineered HEK cells (HEKT-bet)
T1 sequence (Q9UL17 1-535): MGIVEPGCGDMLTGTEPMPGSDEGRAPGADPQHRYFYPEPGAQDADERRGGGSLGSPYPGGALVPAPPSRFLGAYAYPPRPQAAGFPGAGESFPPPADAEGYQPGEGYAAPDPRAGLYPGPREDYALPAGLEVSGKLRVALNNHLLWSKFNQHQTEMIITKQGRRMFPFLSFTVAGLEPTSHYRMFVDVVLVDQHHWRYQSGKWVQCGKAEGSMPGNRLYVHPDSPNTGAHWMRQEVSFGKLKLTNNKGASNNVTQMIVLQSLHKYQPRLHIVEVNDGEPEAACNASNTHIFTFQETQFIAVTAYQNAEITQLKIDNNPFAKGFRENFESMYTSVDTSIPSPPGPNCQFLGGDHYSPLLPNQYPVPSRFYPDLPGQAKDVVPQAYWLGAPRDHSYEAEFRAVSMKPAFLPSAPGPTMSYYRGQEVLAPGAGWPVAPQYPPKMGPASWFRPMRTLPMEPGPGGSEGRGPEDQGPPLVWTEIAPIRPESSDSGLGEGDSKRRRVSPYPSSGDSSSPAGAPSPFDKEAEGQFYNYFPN
Assay: HEKT-bet-luc assay (T-bet dependent luciferase reporter in engineered HEK cells)
Type: cell-based
Conditions: HEKT-bet cells, compound 24 hours, IC50 normalized to reference ER-213038, read-out: IC50
Experimental: HEKT-bet-luc assay: This assay measures a T-bet dependent reporter (luciferase) activity in engineered HEK cells that express a human T-bet and a T-box responsive element driving luciferase reporter. HEKT-bet cells were plated at 2×10^4/well in 96-well plate and compound was added into cell culture for 24 hours. Luciferase activity was measured by adding 50 μl of Steady-Glo reagent (Promega) and samples were read in Victor V reader (PerkinElmer). The IC50 values were calculated utilizing a maximum value corresponding to the amount of luciferase in the absence of a test compound and a minimum value corresponding to a test compound value obtained at maximum inhibition.
Determination of Normalized HEKT-bet IC50 values: Compounds were assayed in microtiter plates. Each plate included a reference compound which was ER-213038. The un-normalized IC50 value for a particular compound was divided by the IC50 value determined for the reference compound in the same microtiter plate to provide a relative potency value. The relative potency value was then multiplied by the established potency of the reference compound to provide the normalized HEKT-bet IC50 value. […] The IC50 values provided herein were obtained using this normalization method.

Row | SMILES | IC50 (Table 3) | IC50 (Table 4)
1 | COCCN1C(=O)N(CCCc2cccnc2)C(=O)C12CCN(Cc1ccnc3ccccc13)CC2 [Example 81] | 650 nM | 
2 | COCCN1C(=O)N(CC#Cc2cccc(OC)c2)C(=O)C12CCN(Cc1ccccc1)CC2 [Example 82] | 650 nM | 
3 | COc1cc(CN2CCC3(CC2)C(=O)N(C/C=C/c2ccccc2)C(=O)N3CCn2cccc2)cc(OC)c1 [Example 83] | 667 nM | 
4 | COCCN1C(=O)N(Cc2cccc(OC)c2)C(=O)C12CCN(Cc1cccc(-c3cccc(O)c3)c1)CC2 [Example 84] | 681 nM | 
5 | COCCN1C(=O)N(Cc2cccc(OC)c2)C(=O)C12CCN(Cc1cccc(-c3ccsc3)c1)CC2 [Example 85] | 750 nM | 
6 | COc1cc(CN2CCC3(CC2)C(=O)N(C/C=C/c2ccccc2)C(=O)N3CC=C(C)C)cc(OC)c1 [Example 86] | 757 nM | 
7 | COCCN1C(=O)N(Cc2cccc(OC)c2)C(=O)C12CCN(Cc1c(Cl)cccc1Cl)CC2 [Example 87] | 782 nM | 
8 | O=C1N(C/C=C/c2ccccc2)C(=O)C2(CCN(Cc3cccc4ccccc34)CC2)N1CCCO [Example 88] | 798 nM | 
9 | COCCN1C(=O)N(C/C=C/Cc2cccc(OC)c2)C(=O)C12CCN(Cc1ccccc1)CC2 [Example 89] | 835 nM | 
10 | COCCN1C(=O)N(CCCc2ccccc2)C(=O)C12CCN(Cc1ccccc1)CC2 [Example 90] | 838 nM | 
11 | COCCN1C(=O)N(Cc2cccc(OC)c2)C(=O)C12CCN(Cc1cc(C)c(C)s1)CC2 [Example 91] | 845 nM | 
12 | COCCN1C(=O)N(Cc2cccc(OC)c2)C(=O)C12CCN(Cc1cccc(-c3ccc4[nH]ccc4c3)c1)CC2 [Example 92] | 868 nM | 
13 | COCCN1C(=O)N(CCCCCCCCO)C(=O)C12CCN(Cc1ccccc1)CC2 [Example 93] | 914 nM | 
14 | COCCN1C(=O)N(Cc2ccoc2)C(=O)C12CCN(Cc1cc(OC)cc(OC)c1)CC2 [Example 94] | 936 nM | 
15 | CCN1C(=O)N(Cc2ccc3ccccc3c2)C(=O)C12CCN(Cc1ccc3ccccc3c1)CC2 [Example 95] | 970 nM | 
16 | COCCN1C(=O)N(Cc2ccc3cc4ccccc4cc3c2)C(=O)C12CCN(Cc1ccccc1)CC2 [Example 96] | 1030 nM | 
17 | COc1cccc(CN2CCC3(CC2)C(=O)N(Cc2cc(OC)cc(OC)c2)C(=O)N3Cc2ccc3c(c2)nnn3C)c1 [Example 97] | 1080 nM | 
18 | COc1cccc(CN2C(=O)N(Cc3cccc(C#N)c3)C3(CCN(Cc4ccccc4)CC3)C2=O)c1 [Example 98] | 1100 nM | 
19 | COc1cc(CN2CCC3(CC2)C(=O)N(Cc2cc(OC)cc(OC)c2)C(=O)N3CSC)cc(OC)c1 [Example 99] | 1150 nM | 
20 | COCCN1C(=O)N(Cc2ccc(C(=O)c3ccccc3)cc2)C(=O)C12CCN(Cc1ccccc1)CC2 [Example 100] | 1240 nM | 
21 | COCCN1C(=O)N(Cc2cccc(OC)c2)C(=O)C12CCN(Cc1cccc3nsnc13)CC2 [Example 101] | 1240 nM | 

Row | SMILES | IC50 (Table 3) | IC50 (Table 4)
22 | COCCN1C(=O)N(Cc2cccc(OC)c2)C(=O)C12CCN(Cc1cc(F)cc3c1OCOC3)CC2 [Example 102] | 1320 nM | 
23 | COCCN1C(=O)N(Cc2cccc(OC)c2)C(=O)C12CCN(Cc1ccccc1OC(F)(F)F)CC2 [Example 103] | 1340 nM | 
24 | CCOC(=O)CCCCN1C(=O)N(Cc2cccc(OC)c2)C(=O)C12CCN(Cc1ccccc1)CC2 [Example 104] | 1390 nM | 
25 | COc1cccc(CN2C(=O)N(Cc3cccc4cccnc34)C3(CCN(Cc4cccc5ccccc45)CC3)C2=O)c1 [Example 105] | 1390 nM | 
26 | COCCN1C(=O)N(Cc2cccc(OC)c2)C(=O)C12CCN(C1CCc3ccc(C)cc31)CC2 (centres unmarked) [Example 106] | 1420 nM | 
27 | COCCN1C(=O)N(CC(=O)c2ccc3ccccc3c2)C(=O)C12CCN(Cc1ccccc1)CC2 [Example 107] | 1460 nM | 
28 | COCCN1C(=O)N(Cc2cccc(OC)c2)C(=O)C12CCN(C/C=C/c1ccc(OC)cc1)CC2 [Example 108] | 1470 nM | 
29 | COc1cccc(CN2C(=O)N(CC=C(C)C)C3(CCN(Cc4ccccc4)CC3)C2=O)c1 [Example 109] | 1520 nM | 
30 | COCCN1C(=O)N(Cc2cccc(OC)c2)C(=O)C12CCN(CC=C(c1ccccc1)c1ccccc1)CC2 [Example 110] | 1540 nM | 
31 | COCCN1C(=O)N(Cc2cccc(OC)c2)C(=O)C12CCN(Cc1cc(F)c(O)c(OC)c1)CC2 [Example 111] | 1550 nM | 
32 | COc1cccc(CN2C(=O)N(CCOCc3ccccc3)C3(CCN(Cc4ccccc4)CC3)C2=O)c1 [Example 112] | 1570 nM | 
33 | COCCN1C(=O)N(Cc2cccc(OC)c2)C(=O)C12CCN(CC(=O)C13CC4CC(CC(C4)C1)C3)CC2 [Example 113] | 1650 nM | 
34 | COCCN1C(=O)N(Cc2cc(C(C)(C)C)cc(C(C)(C)C)c2)C(=O)C12CCN(Cc1ccccc1)CC2 [Example 114] | 1740 nM | 
35 | COCCN1C(=O)N(Cc2cccc(OC)c2)C(=O)C12CCN(Cc1ccc3ccc4cccc5ccc1c3c45)CC2 [Example 115] | 1810 nM | 
36 | COc1cccc(CN2C(=O)N(Cc3ccc(Cl)cc3)C3(CCN(Cc4ccccc4)CC3)C2=O)c1 [Example 116] | 1830 nM | 
37 | COCCN1C(=O)N(CCCCOc2ccccc2)C(=O)C12CCN(Cc1ccccc1)CC2 [Example 117] | 1840 nM | 
38 | COCCN1C(=O)N(Cc2cccc(OC)c2)C(=O)C12CCN(Cc1cc(O)c(OC)c(OC)c1)CC2 [Example 118] | 1880 nM | 
39 | COCCN1C(=O)N(CCOCc2ccccc2)C(=O)C12CCN(Cc1ccccc1)CC2 [Example 119] | 1930 nM | 
40 | COCCN1C(=O)N(Cc2cccc(OC)c2)C(=O)C12CCN(Cc1ccc(-c3cccs3)s1)CC2 [Example 120] | 1990 nM | 
41 | COc1cc(CN2CCC3(CC2)C(=O)N(C/C=C/c2ccccc2)C(=O)N3C)cc(OC)c1 [Example 121] |  | 25 nM
42 | COCCN1C(=O)N(Cc2cccc(OC)c2)C(=O)C12CCN(Cc1c(C)ccc3ccccc13)CC2 [Example 123] |  | 60 nM

Row | SMILES | IC50 (Table 3) | IC50 (Table 4)
43 | CCN1C(=O)N(C/C=C/c2ccccc2)C(=O)C12CCN(Cc1cccc(C)c1)CC2 [Example 125] |  | 68 nM
44 | COc1cc(CN2CCC3(CC2)C(=O)N(C/C=C/c2ccccc2)C(=O)N3Cc2cccc(-n3cccc3)c2)cc(OC)c1 [Example 126] |  | 73 nM
45 | COCCN1C(=O)N(Cc2cccc(OC)c2)C(=O)C12CCN(Cc1ccc(C)c3ccccc13)CC2 [Example 127] |  | 82 nM
46 | COCCN1C(=O)N(Cc2cccc(OC)c2)C(=O)C12CCN(Cc1cccc3ccccc13)CC2 [Example 128] |  | 86 nM
47 | COCCN1C(=O)N(Cc2cccc(OC)c2)C(=O)C12CCN(Cc1c(OC)ccc3ccccc13)CC2 [Example 129] |  | 94 nM
48 | COCCN1C(=O)N(C/C=C/c2ccccc2)C(=O)C12CCN(Cc1cccc3ccccc13)CC2 [Example 131] |  | 100 nM
49 | COCCN1C(=O)N(C/C=C/c2ccccc2)C(=O)C12CCN(Cc1cccc(OC)c1)CC2 [Example 132] |  | 101 nM
50 | COCCN1C(=O)N(Cc2cccc(OC)c2)C(=O)C12CCN(Cc1cccc3ccccc13)CC2 [Example 133] |  | 119 nM
51 | COCCN1C(=O)N(Cc2cccc(OC)c2)C(=O)C12CCN(Cc1cccc(C)c1C)CC2 [Example 134] |  | 120 nM
52 | COCCN1C(=O)N(Cc2cccc(OC)c2)C(=O)C12CCN(Cc1ccc3cc(OC)ccc3c1)CC2 [Example 135] |  | 123 nM
53 | COCN1C(=O)N(C/C=C/c2ccccc2)C(=O)C12CCN(Cc1cc(OC)cc(OC)c1)CC2 [Example 136] |  | 124 nM
54 | CCN1C(=O)N(Cc2cccc(OC)c2)C(=O)C12CCN(Cc1cc(OC)cc(OC)c1)CC2 [Example 137] |  | 124 nM
55 | COc1cccc(CN2C(=O)N(Cc3ccncc3)C3(CCN(Cc4cccc5ccccc45)CC3)C2=O)c1 [Example 138] |  | 125 nM
56 | COCCN1C(=O)N(Cc2cccc(OC)c2)C(=O)C12CCN(Cc1cc(C)c(C)cc1C)CC2 [Example 139] |  | 125 nM
57 | COc1cccc(CN2C(=O)N(Cc3ccc(-n4cccn4)cc3)C3(CCN(Cc4cccc5ccccc45)CC3)C2=O)c1 [Example 140] |  | 127 nM
58 | COCCN1C(=O)N(Cc2cccc(OC)c2)C(=O)C12CCN(Cc1c(C)cccc1C)CC2 [Example 141] |  | 130 nM
59 | CCOc1ccc2ccccc2c1CN1CCC2(CC1)C(=O)N(Cc1cccc(OC)c1)C(=O)N2CCOC [Example 142] |  | 130 nM
60 | COc1cc(CN2CCC3(CC2)C(=O)N(C/C=C/c2ccccc2)C(=O)N3Cc2ccccn2)cc(OC)c1 [Example 143] |  | 134 nM
61 | COc1cc(CN2CCC3(CC2)C(=O)N(Cc2cc(OC)cc(OC)c2)C(=O)N3C)cc(OC)c1 [Example 144] |  | 134 nM
62 | COc1cc(CN2CCC3(CC2)C(=O)N(Cc2cc(OC)cc(OC)c2)C(=O)N3Cc2ccncc2)cc(OC)c1 [Example 145] |  | 139 nM
